Patent US20120009280A1, “METHOD OF REDUCING THE RATE OF DEGRADATION OF A BIOLOGICAL MATERIAL” (Bio-Energy Ingredients Limited, priority 2009, published 2012)

What was measured:
total micro-organism = assay: Total microbial (plate) count of spent brewer's / wet distiller's grains stored at ambient temperature; format: cell-based; design: total microbial count: unit: cfu/gram; conditions: for preservation time with total microbial counts <10 cfu/g / preservation time with total microbial counts <100 cfu/g / preservation time with total microbial counts <1000 cfu/g: distiller's grains not de-watered, Examples 16-18; for preservation effect period: Example 18; for total microbial count: powder 10% (w/w)
Source text: Samples of spent brewer's grains were drawn from the discharge line of a brewery in South Africa. The samples, packed in dry ice in a cold box, were transported over a distance of approximately 40 kilometres to a laboratory. At the laboratory, the samples were thoroughly mixed and initially split into a first portion (Portion 1) and a second portion (Portion 2). The second portion was about twice the size of the first. Portion 1 was left untreated. Material produced from Portion 1 and Portion 2 is designated below using the code “AR” (as received).
Portion 2 was placed on a clean, standard, laboratory screen deck with 1.4 mm apertures supported from below. As much water as possible was manually squeezed out with a clean flat plastic disc and the sample was then manually remixed after the squeezing. The squeezed material was then split into a third portion (Portion 3) and a fourth portion (Portion 4) of approximately the same size. Material produced from Portion 3 and Portion 4 is designated below using the code “SO” (squeezed).
Portion 4 was added to a high speed kitchen food-shredder and shredded for about two minutes. The shredded material was then returned to the 1.4 mm aperture screen and squeezed again, as described above, and manually remixed again after the second squeezing to produce a shredded and squeezed portion (Portion 5). Material produced from Portion 5 is designated below using the code “SH” (shredded).
(§1) Samples of Portion 1 (“AR”), Portion 3 (“SO”) and Portion 5 (“SH”) were then delivered to a microbiological testing facility about 15 kilometres from the treatment laboratory. Each was tested for initial total microbial, yeast and mould counts, respectively.
(§2) Separate untreated samples were similarly stored under insect-proof screens at ambient temperature for seven days (as shown in Tables 1 and 2). During the trial period the ambient temperature ranged from 11 to 33 degrees C.
After exposure to the environment for seven days, all of the samples were tested at a South African National Accreditation System (SANAS) approved microbiological testing facility. Each was tested for total micro-organism, yeast and mould counts to determine the affect of the various treatments.
Samples of spent brewer's grains were drawn from the discharge line of a brewery in South Africa.
(§3) At the laboratory, the samples were thoroughly mixed and initially split into a first portion (Portion 1) and a second portion (Portion 2). Portion 1 was left untreated. A sample of Portion 1, was delivered immediately to a microbiological testing facility about 15 kilometres away from the treatment laboratory and was tested for initial total microbial, yeast and mould counts, respectively.
Samples from Portion 2 were subjected to treatment with varying amounts of a powdered, commercially-available calcium oxide containing approximately 94% calcium oxide (CaO) as shown in Table 32. The treatments varied from 2.5 to 10% (w/w) calcium oxide addition. The samples were stored in batches (according to the calcium oxide treatment) under insect-proof screens at ambient temperature for fifty six days. […] During the trial period the ambient temperature ranged from 10 to 30 degrees C. As this period was the southern hemisphere spring/early summer, the humidity as well as ambient temperatures varied widely.
(§4) Samples from each treatment were drawn every seven days. No further calcium oxide treatment or agitation took place after the initial mix. In each case the entire sample was isolated and delivered to the microbiological testing facility.
(§5) In this trial the same source of wet distiller's grains (again with now partial water removal prior to treatment) was treated.
as §5

yeast = assay: Yeast count of spent brewer's / wet distiller's grains stored at ambient temperature; format: cell-based
Procedure: as §1, §2
(§6) The free moisture content on the initial spent brewer's grains was determined to be 78.1% m/m. After exposure to the environment for seven days, all of the samples were tested at a South African National Accreditation System (SANAS) approved microbiological testing facility. Each was tested for total micro-organism, yeast and mould counts to determine the affect of the various treatments. A similar procedure to that described in K. A. Rosentrater et al, Food Bioprocess Technol (2008) was used for the microbiological evaluation.
as §3, with “respectively. No water removal prior to treatment was done in this experiment as was the case in Example 8 wherein a similar wet material was partially dewatered by pressing and the residue treated with 10% (w/w/) calcium oxide.” for “respectively.”
Samples from Portion 2 were subjected to treatment with varying amounts of a powdered, commercially-available calcium oxide containing approximately 94% calcium oxide (CaO) as shown in Table 32. The treatments varied from 2.5 to 10% (w/w) calcium oxide addition. The samples were stored in batches (according to the calcium oxide treatment) under insect-proof screens at ambient temperature for fifty six days. Separate untreated samples were similarly stored under insect-proof screens at ambient temperature for a total of 56 days. During the trial period the ambient temperature ranged from 10 to 30 degrees C. As this period was the southern hemisphere spring/early summer, the humidity as well as ambient temperatures varied widely.
as §6, with “79.4%” for “78.1%”
as §4
The calcium oxide treatment trial described in Example 9 wherein wet distiller's grains were treated with 2.5%, 5% and 10.0% calcium oxide, respectively, versus untreated material was repeated using lower doses of calcium oxide. In this trial the same source of wet distiller's grains (again with now partial water removal prior to treatment) was treated. Also, the same protocol as described in Example 9 was applied, but at lower doses of calcium oxide i.e. 0.5%, 1.0%, 1.5%, 2.0% and 2.5%, respectively, versus untreated material.
In this trial the same source of wet distiller's grains (again with now partial water removal prior to treatment) was treated. Also, the same protocol as described in Example 9 was applied.

[1] = dose 10% w/w, partially de-watered wet distiller's grains, Example 8

SMILES: [Ca+2].[O-]CC(O)CO.[O-]CC(O)CO [Ca-DGO granules]
- Total plate count (total micro-organism; dose 10% (w/w), week 0): 80 cfu/gram
- Total plate count (total micro-organism; dose 10% (w/w), week 1): 510 cfu/gram
- Total plate count (total micro-organism; dose 10% (w/w), week 2): 3500 cfu/gram
- Total plate count (total micro-organism; dose 10% (w/w), week 4): 30 cfu/gram
- Total plate count (total micro-organism; dose 10% (w/w), week 6): 5400 cfu/gram
- Total plate count (total micro-organism; dose 10% (w/w), week 8): 410000 cfu/gram
- Total plate count (total micro-organism; dose 10% (w/w), week 9): 480000 cfu/gram
- Total plate count (total micro-organism; dose 15% (w/w), week 0): 180 cfu/gram
- Total plate count (total micro-organism; dose 15% (w/w), week 1): 150 cfu/gram
- Total plate count (total micro-organism; dose 15% (w/w), week 4): 70 cfu/gram
- Total plate count (total micro-organism; dose 15% (w/w), week 5): 650 cfu/gram
- Total plate count (total micro-organism; dose 15% (w/w), week 6): 120 cfu/gram
- Total plate count (total micro-organism; dose 15% (w/w), week 7): 700 cfu/gram
- Total plate count (total micro-organism; dose 15% (w/w), week 8): 270 cfu/gram
- Total plate count (total micro-organism; dose 15% (w/w), week 9): 150 cfu/gram
- Yeast Count (yeast; dose 10% (w/w), week 3): <10 cfu/gram
- Yeast Count (yeast; dose 10% (w/w), week 4): <10 cfu/gram
- Yeast Count (yeast; dose 10% (w/w), week 5): 100 cfu/gram
- Yeast Count (yeast; dose 10% (w/w), week 6): <10 cfu/gram
- Yeast Count (yeast; dose 10% (w/w), week 9): <10 cfu/gram

SMILES: [Ca+2].[O-2] [CaO powder]
- Total plate count (total micro-organism; dose 5% (w/w), week 0): 640 cfu/gram
- Total plate count (total micro-organism; dose 5% (w/w), week 1): 1800 cfu/gram
- Total plate count (total micro-organism; dose 5% (w/w), week 2): 280 cfu/gram
- Total plate count (total micro-organism; dose 5% (w/w), week 3): 210 cfu/gram
- Total plate count (total micro-organism; dose 5% (w/w), week 4): <10 cfu/gram
- Total plate count (total micro-organism; dose 5% (w/w), week 6): 40 cfu/gram
- Total plate count (total micro-organism; dose 5% (w/w), week 7): 900 cfu/gram
- Total plate count (total micro-organism; dose 5% (w/w), week 8): 120 cfu/gram
- Total plate count (total micro-organism; dose 5% (w/w), week 9): 20 cfu/gram
- Total plate count (total micro-organism; dose 10% (w/w), week 0): 100 cfu/gram
- Total plate count (total micro-organism; dose 10% (w/w), week 1): 310 cfu/gram
- Total plate count (total micro-organism; dose 10% (w/w), week 2): 150 cfu/gram
- Total plate count (total micro-organism; dose 10% (w/w), week 3): 40 cfu/gram
- Total plate count (total micro-organism; dose 10% (w/w), week 4): 20 cfu/gram
- Total plate count (total micro-organism; dose 10% (w/w), week 6): <10 cfu/gram
- Total plate count (total micro-organism; dose 10% (w/w), week 7): 300 cfu/gram
- Total plate count (total micro-organism; dose 10% (w/w), week 8): 80 cfu/gram
- Total plate count (total micro-organism; dose 10% (w/w), week 9): <10 cfu/gram
- minimum preservation time with total microbial counts <60 cfu/g (total micro-organism; [1]): 2 weeks
- minimum preservation time with total microbial counts <1000 cfu/g (total micro-organism; [1]): ≧1 year
- Yeast Count (yeast; dose 10% (w/w), week 3): <10 cfu/gram
- Yeast Count (yeast; dose 10% (w/w), week 4): <10 cfu/gram
- Yeast Count (yeast; dose 10% (w/w), week 5): <10 cfu/gram
- Yeast Count (yeast; dose 10% (w/w), week 6): <10 cfu/gram
- Yeast Count (yeast; dose 10% (w/w), week 9): <10 cfu/gram

SMILES: [Ca+2].[OH-].[OH-] [calcium hydroxide]
- preservation time with total microbial counts <10 cfu/g (total micro-organism; dose 3.3% w/w): ≧6 weeks
- preservation time with total microbial counts <100 cfu/g (total micro-organism; dose 3.3% w/w): ≧6 weeks
- preservation time with total microbial counts <1000 cfu/g (total micro-organism; dose 3.3% w/w): ≧6 weeks
- preservation time with total microbial counts <10 cfu/g (total micro-organism; dose 6.6% w/w): ≧6 weeks
- preservation time with total microbial counts <100 cfu/g (total micro-organism; dose 6.6% w/w): ≧6 weeks
- preservation time with total microbial counts <1000 cfu/g (total micro-organism; dose 6.6% w/w): ≧6 weeks

SMILES: [Ca+2].[OH-].[OH-] [(CaOH)2 powder]
- Total plate count (total micro-organism; dose 3.3% (w/w), week 0): 60 cfu/gram
- Total plate count (total micro-organism; dose 3.3% (w/w), week 1): 12100 cfu/gram
- Total plate count (total micro-organism; dose 3.3% (w/w), week 4): 1750 cfu/gram
- Total plate count (total micro-organism; dose 3.3% (w/w), week 5): 20 cfu/gram
- Total plate count (total micro-organism; dose 3.3% (w/w), week 6): <10 cfu/gram
- Total plate count (total micro-organism; dose 3.3% (w/w), week 7): 101000 cfu/gram
- Total plate count (total micro-organism; dose 3.3% (w/w), week 8): 3.20E+06 cfu/gram
- Total plate count (total micro-organism; dose 6.6% (w/w), week 0): 70 cfu/gram
- Total plate count (total micro-organism; dose 6.6% (w/w), week 1): 50 cfu/gram
- Total plate count (total micro-organism; dose 6.6% (w/w), week 2): 160 cfu/gram
- Total plate count (total micro-organism; dose 6.6% (w/w), week 3): 1550 cfu/gram
- Total plate count (total micro-organism; dose 6.6% (w/w), week 4): 290 cfu/gram
- Total plate count (total micro-organism; dose 6.6% (w/w), week 5): <10 cfu/gram
- Total plate count (total micro-organism; dose 6.6% (w/w), week 6): <10 cfu/gram
- Total plate count (total micro-organism; dose 6.6% (w/w), week 7): 5000 cfu/gram
- Total plate count (total micro-organism; dose 6.6% (w/w), week 8): 960000 cfu/gram
- Total plate count (total micro-organism; dose 6.6% (w/w), week 9): 1.24E+06 cfu/gram
- Yeast Count (yeast; dose 3.3% (w/w), week 8): <10 cfu/gram
- Yeast Count (yeast; dose 6.6% (w/w), week 2): <10 cfu/gram

SMILES: [Ca+2].[O-]CC(O)CO.[O-]CC(O)CO [calcium diglyceroxide]
- Total plate count (total micro-organism; 10% Ca-DGO (w/w) granules, week 1): 11000 cfu/gram
- Total plate count (total micro-organism; 10% Ca-DGO (w/w) granules, week 2): <10 cfu/gram
- Total plate count (total micro-organism; 10% Ca-DGO (w/w) granules, week 3): 540 cfu/gram
- Total plate count (total micro-organism; 10% Ca-DGO (w/w) granules, week 4): 60 cfu/gram
- Total plate count (total micro-organism; 10% Ca-DGO (w/w) granules, week 5): 650 cfu/gram
- Total plate count (total micro-organism; 10% Ca-DGO (w/w) powder, week 1): 610 cfu/gram
- Total plate count (total micro-organism; 10% Ca-DGO (w/w) powder, week 2): <10 cfu/gram
- Total plate count (total micro-organism; 10% Ca-DGO (w/w) powder, week 3): 580 cfu/gram
- Total plate count (total micro-organism; 10% Ca-DGO (w/w) powder, week 4): 5000 cfu/gram
- Total plate count (total micro-organism; 10% Ca-DGO (w/w) powder, week 5): 36000 cfu/gram
- Total plate count (total micro-organism; 20% Ca-DGO (w/w) powder, week 1): 80 cfu/gram
- Total plate count (total micro-organism; 20% Ca-DGO (w/w) powder, week 2): 310 cfu/gram
- Total plate count (total micro-organism; 20% Ca-DGO (w/w) powder, week 3): 140 cfu/gram
- Total plate count (total micro-organism; 20% Ca-DGO (w/w) powder, week 4): 40 cfu/gram
- Total plate count (total micro-organism; 20% Ca-DGO (w/w) powder, week 5): 10 cfu/gram
- Total plate count (total micro-organism; 40% Ca-DGO (w/w) powder, week 1): 40 cfu/gram
- Total plate count (total micro-organism; 40% Ca-DGO (w/w) powder, week 2): 450 cfu/gram
- Total plate count (total micro-organism; 40% Ca-DGO (w/w) powder, week 3): 103 cfu/gram
- Total plate count (total micro-organism; 40% Ca-DGO (w/w) powder, week 4): 10 cfu/gram
- Total plate count (total micro-organism; 40% Ca-DGO (w/w) powder, week 5): 10 cfu/gram
- preservation effect period (total micro-organism; granule form 15% (w/w)): 9 week
- total microbial count (total micro-organism; 3 week time point): 580
- total microbial count (total micro-organism; week 4): 5,000
- total microbial count (total micro-organism; week 5): 36,000
- preservation effect period (total micro-organism; powder form 15% (w/w)): 9 week
